In one experiment the test system is apple juice. The experiment can be described thus: Browning inhibitory effect on apple juice. As to conditions: absorbance at 420 nm, compared to apple juice blank control. Further details: species or system Zhaotong Red Fuji apples. The protocol: To investigate the anti-browning effect of 6′-O-caffeoylarbutin, apple juice was used following a modified method based on the literature. Zhaotong Red Fuji apples were carefully chosen to ensure uniform shape, color, size, and maturity, free from any physical damage. After peeling, the apples were sliced into 10 g portions. These apple pieces were then immersed in solutions containing different concentrations of 6′-O-caffeoylarbutin for 10 min, followed by homogenization. The homogenized samples were subsequently subjected to centrifugation at 8000 rpm for 5 min at 4 °C, and the resulting supernatant (3 mL) was collected. Simultaneously, a blank control was prepared by extracting apple juice without the addition of any anti-browning agent. The absorbance of the samples at 420 nm was measured using a UV_vis spectrophotometer.

The test system of experiment [1] is Human melanoma A375 tumor cells. The experiment can be described thus: CCK-8 cell proliferation and cytotoxicity assay, A375. The class given is cell-based. The procedure:
I. Cell lines and cell culture. Human melanoma A375 tumor cells and human immortalized keratinocyte (HaCaT) non-tumor cells were obtained from Nanjing Pusheng Biomedical Technology Co., Ltd. (Nanjing, China). The cells (A375/HaCaT) were cultured in Dulbecco’s modified Eagle’s medium (DMEM, Gibco, New York, NY, USA) supplemented with 10% (v/v) fetal bovine serum (FBS, Gibco, New York, NY, USA), and incubated at 37 °C with 5% CO2 in a humidified incubator.
II. Cell viability assay. Cell proliferation and cytotoxicity assays were conducted using the Cell counting kit-8 (CCK-8) on A375 and HaCaT cells. Briefly, the cells were initially seeded in 96-well plates at a density of 4 × 10^4 cells per well and incubated for 24 h at 37 °C with 5% CO2 in a humidified incubator. Each treatment was performed in six duplicate wells. The tested compounds were added at various concentrations, and the cells were then incubated for 72 h. Following the incubation period, CCK-8 solution (Dojindo Laboratories, Kumamoto, Japan) was added to each well, and the plates were further incubated for 2 h. The absorbance of each well at 450 nm was measured using an absorbance microplate reader (BioTek ELx800, Winooski, VT, USA). The assay included negative controls in which cells were treated with ultrapure water and positive controls in which cells were treated with 10 µg·mL^−1 taxol. The percentage of cell growth inhibition was calculated using the following Equation (3). (3) Cell growth inhibition rate [%]=B1−B2/B1−B3×100 where B1 represents the absorbance of a mixture containing cells, medium, and CCK-8 solution, B2 represents the absorbance of a mixture containing cells, medium, CCK-8 solution, and the test compound; and B3 represents a mixture containing medium and CCK-8 solution.

The target of experiment [2] is T1, Mushroom tyrosinase (mTyr) (Agaricus bisporus, UniProt C7FF04).
T1 construct: purchased Sigma-Aldrich
T1 sequence (C7FF04 1-392): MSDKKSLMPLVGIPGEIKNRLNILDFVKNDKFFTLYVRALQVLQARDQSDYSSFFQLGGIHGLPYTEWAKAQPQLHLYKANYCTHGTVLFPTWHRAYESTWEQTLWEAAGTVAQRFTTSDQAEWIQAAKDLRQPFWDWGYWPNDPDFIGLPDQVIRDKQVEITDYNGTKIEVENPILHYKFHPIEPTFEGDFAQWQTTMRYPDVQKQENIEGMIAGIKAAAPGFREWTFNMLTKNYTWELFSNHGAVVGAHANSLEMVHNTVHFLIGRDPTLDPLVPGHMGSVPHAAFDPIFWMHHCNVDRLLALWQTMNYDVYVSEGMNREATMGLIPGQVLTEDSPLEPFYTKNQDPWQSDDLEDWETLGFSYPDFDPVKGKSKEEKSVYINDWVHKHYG
The conditions noted are these: substrate L-DOPA; previous experiments; Liu et al., 2023; read-out: IC50, diphenolase activity of mTyr; cited from earlier work.

Experiment [3] has as its target T1, Mushroom tyrosinase (mTyr). As to conditions: substrate L-tyrosine; previous experiments; Liu et al., 2023; read-out: IC50, monophenolase activity of mTyr; cited from earlier work.
The target of experiment [4] is T1, Mushroom tyrosinase (mTyr). The experiment can be described thus: mTyr inhibition kinetics (Lineweaver-Burk). Type of experiment: biochemical. The protocol:
The mTyr inhibition kinetics of 6′-O-caffeoylarbutin were studied using a method similar to the previously reported procedure for determining the inhibitory activity of 6′-O-caffeoylarbutin on mTyr.
I. Enzyme inhibition mechanism study. For the investigation of the enzyme inhibition mechanism, L-DOPA was used at a final concentration of 0.5 mmol·L^−1, and the mTyr was set at final concentrations of 8.1, 32.5, and 65.0 U·mL^−1. The rate of change of optical density (OD) at 490 nm was measured for various concentrations of 6′-O-caffeoylarbutin (ranging from 10 to 100 μM). A graph was plotted to depict the relationship between the rate of change of OD values and the mTyr concentration under the influence of different concentrations of 6′-O-caffeoylarbutin.
II. Enzyme inhibition type study. To determine the enzyme inhibition type, L-DOPA was used with final concentrations of 0.2, 0.5, 0.6, and 0.8 mmol·L^−1, while mTyr was used at a final concentration of 31.25 U·mL^−1. The rate of change of OD at 490 nm was measured for various concentrations of 6′-O-caffeoylarbutin (ranging from 0 to 100 μM). A reciprocal plot was generated using the rate of change of OD values and L-DOPA concentration. The inhibition constants were obtained based on the inhibition type of 6′-O-caffeoylarbutin on mTyr using quadratic plotting of the 6′-O-caffeoylarbutin concentration and the slope and vertical intercept of the line in the Lineweaver_Burk double reciprocal plot and Dixon plot.

Data on one compound can be found in PMC10816276 (International Journal of Molecular Sciences, 2024).

Converted amounts (≈) assume the structure as drawn. “And” between values parts separate entries of the source, which are not always exact repeats. Equal values may be shown once. Read-outs that look alike come from different tables or passages of the source.

For `O=C(C=Cc1ccc(O)c(O)c1)OCC1OC(Oc2ccc(O)cc2)C(O)C(O)C1O` (stereo not shown) [6′-O-caffeoylarbutin], in the experiment with apple juice, the “formation of browning compounds in apple juice” value is “significant reduction in the formation of browning compounds in a dose-dependent manner”. The inhibition rate entry in experiment [1] (3.125–100 μg∙mL^−1, 72 h) is “below 5%”. Besides, in experiment [1] (Homo sapiens, A-375, 200 μg∙mL^−1, 72 h, read-out: inhibition rate), the inhibition at 200 µg/mL worked out at 20%. Also, the inhibition at 400 µg/mL in experiment [1] (Homo sapiens, A-375, 400 μg∙mL^−1, 72 h, read-out: inhibition rate) came out at 67.8%. In addition, the IC50 in experiment [1] (Homo sapiens, A-375, 72 h, CCK-8) is 313 µg/mL (≈ 721 µM); in experiment [2], 95.2 µM; in experiment [3] it was 1.11 µM and 1.1 µM. In experiment [4] (Lineweaver-Burk, substrate L-DOPA), the “inhibition type on mTyr” value is listed as “competitive inhibition”. The inhibition constant (Ki) in experiment [4] (binding to free enzyme, substrate L-DOPA, read-out: inhibition constant (Ki) on mTyr) was 1.34 ± 0.92 µM. Besides, the “reversibility of mTyr inhibition” value in experiment [4] (rate vs enzyme concentration, 10-100 μM inhibitor, L-DOPA 0.5 mmol·L^−1) is listed as “reversible”.
